The text below walks through data of patent US10214511B2, “Quinazolines as potassium ion channel inhibitors” (Bristol-Myers Squibb Company, priority 2009, dated 2019).

Molecules are shown by their SMILES. pIC50: −log10 of the molar value. Where two headings read alike, the source gives them in different places.

One data set concerns the target JAK2 (Homo sapiens (Human), UniProt O60674). Nature of the data set: Caliper Kinase Assay. The following applies: ATP at Km, peptide 1.5 uM; read-out: LLE_JAK2 (IC50). The class given is biochemical. The text has this:
(§1) IC50 values were derived by non-linear regression analysis.

In a further data set the target is TAK1 (Homo sapiens (Human), UniProt O43318). Nature of the data set: Caliper Kinase Assay. The class given is biochemical. As to conditions: ATP at Km, peptide 1.5 uM; read-out: LLE_TAK1 (IC50).
Chain of TAK1 (O43318 1-303): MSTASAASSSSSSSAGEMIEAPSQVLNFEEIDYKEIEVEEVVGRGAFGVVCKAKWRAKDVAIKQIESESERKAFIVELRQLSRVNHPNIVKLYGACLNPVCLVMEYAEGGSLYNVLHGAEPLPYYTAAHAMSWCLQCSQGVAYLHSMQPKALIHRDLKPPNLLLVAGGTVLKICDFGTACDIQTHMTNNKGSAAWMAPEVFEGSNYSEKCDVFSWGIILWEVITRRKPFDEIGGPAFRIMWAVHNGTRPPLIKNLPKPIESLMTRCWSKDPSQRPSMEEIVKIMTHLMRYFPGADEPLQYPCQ
Source text: as §1

For a further data set, the target named is Kv 1.5 (Homo sapiens (Human), UniProt P22460). Nature of the data set: Kv1.5 (IKur) inhibition assay. Format: cell-based. The text has this:
Assays to determine the degree of activity of a compound as an IKur inhibitor are well known in the art and are described in references such as J. Gen. Physiol., 101(4):513-543 (April 1993), and Br. J. Pharmacol., 115(2):267-274 (May 1995).
Assays to determine the degree of activity of a compound as an inhibitor of other members of the Kv1 subfamily are also well known in the art. For example, inhibition of Kv1.1, Kv1.2 and Kv1.3 can be measured using procedures described by Grissmer, S. et al., Mol. Pharmacol., 45(6):1227-1234 (June 1994); inhibition of Kv1.4 can be measured using procedures described by Petersen, K. R. et al., Pflugers Arch., 437(3):381-392 (February 1999); inhibition of Kv1.6 can be measured using procedures described by Bowlby, M. R. et al., J. Neurophysiol. 73(6):2221-2229 (June 1995); and inhibition of Kv1.7 can be measured using procedures described by Kalman, K. et al., J. Biol. Chem., 273(10):5851-5857 (Mar. 6, 1998).
Compounds of the present invention were tested in one of the assays described immediately above and the results shown in Table 2 below were obtained.

The nature of data set [1]: Brain penetration across species. The class given is in vivo.
In a further data set the target is ABL1 (Homo sapiens (Human), UniProt P00519). Description: Caliper Kinase Assay. The class given is biochemical. The following applies: read-out: LLE_ABL1 (% INH, 50 uM).
Source text: as §1

The target in another data set is Flt3 (Homo sapiens (Human), UniProt P36888). Nature of the data set: Caliper Kinase Assay. Format: biochemical. The following applies: ATP at Km, peptide 1.5 uM; read-out: LLE Flt3 (IC50).
Chain of Flt3 (P36888 27-993, species assumed): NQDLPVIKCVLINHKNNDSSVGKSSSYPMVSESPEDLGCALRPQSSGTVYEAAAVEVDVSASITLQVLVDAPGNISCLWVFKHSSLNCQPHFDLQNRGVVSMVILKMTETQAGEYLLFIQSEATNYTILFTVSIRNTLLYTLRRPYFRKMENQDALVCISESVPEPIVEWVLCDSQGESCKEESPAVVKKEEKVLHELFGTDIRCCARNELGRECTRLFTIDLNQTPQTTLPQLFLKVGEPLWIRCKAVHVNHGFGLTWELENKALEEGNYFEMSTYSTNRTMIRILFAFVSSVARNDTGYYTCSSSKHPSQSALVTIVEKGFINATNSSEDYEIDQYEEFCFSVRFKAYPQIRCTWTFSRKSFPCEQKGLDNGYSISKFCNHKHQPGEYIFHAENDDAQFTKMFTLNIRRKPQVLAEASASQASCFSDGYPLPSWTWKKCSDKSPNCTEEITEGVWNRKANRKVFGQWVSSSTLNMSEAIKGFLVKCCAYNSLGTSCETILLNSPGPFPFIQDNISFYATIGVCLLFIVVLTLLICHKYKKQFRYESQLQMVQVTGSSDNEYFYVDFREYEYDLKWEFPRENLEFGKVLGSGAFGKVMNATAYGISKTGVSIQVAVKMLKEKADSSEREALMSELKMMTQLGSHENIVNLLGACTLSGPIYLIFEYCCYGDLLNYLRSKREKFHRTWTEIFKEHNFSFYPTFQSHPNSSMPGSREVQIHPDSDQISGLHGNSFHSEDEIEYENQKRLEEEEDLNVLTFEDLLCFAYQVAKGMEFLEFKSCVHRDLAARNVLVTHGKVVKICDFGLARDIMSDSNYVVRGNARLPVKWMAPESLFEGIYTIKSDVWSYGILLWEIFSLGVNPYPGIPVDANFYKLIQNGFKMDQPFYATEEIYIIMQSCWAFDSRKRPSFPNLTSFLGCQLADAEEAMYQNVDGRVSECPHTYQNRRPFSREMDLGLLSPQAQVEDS
Source text: as §1

The next data set deals with IGF1R (Homo sapiens (Human), UniProt P08069). Description: Caliper Kinase Assay. The class given is biochemical. The following applies: ATP at Km, peptide 1.5 uM.
Chain of IGF1R (P08069 31-1367, species assumed): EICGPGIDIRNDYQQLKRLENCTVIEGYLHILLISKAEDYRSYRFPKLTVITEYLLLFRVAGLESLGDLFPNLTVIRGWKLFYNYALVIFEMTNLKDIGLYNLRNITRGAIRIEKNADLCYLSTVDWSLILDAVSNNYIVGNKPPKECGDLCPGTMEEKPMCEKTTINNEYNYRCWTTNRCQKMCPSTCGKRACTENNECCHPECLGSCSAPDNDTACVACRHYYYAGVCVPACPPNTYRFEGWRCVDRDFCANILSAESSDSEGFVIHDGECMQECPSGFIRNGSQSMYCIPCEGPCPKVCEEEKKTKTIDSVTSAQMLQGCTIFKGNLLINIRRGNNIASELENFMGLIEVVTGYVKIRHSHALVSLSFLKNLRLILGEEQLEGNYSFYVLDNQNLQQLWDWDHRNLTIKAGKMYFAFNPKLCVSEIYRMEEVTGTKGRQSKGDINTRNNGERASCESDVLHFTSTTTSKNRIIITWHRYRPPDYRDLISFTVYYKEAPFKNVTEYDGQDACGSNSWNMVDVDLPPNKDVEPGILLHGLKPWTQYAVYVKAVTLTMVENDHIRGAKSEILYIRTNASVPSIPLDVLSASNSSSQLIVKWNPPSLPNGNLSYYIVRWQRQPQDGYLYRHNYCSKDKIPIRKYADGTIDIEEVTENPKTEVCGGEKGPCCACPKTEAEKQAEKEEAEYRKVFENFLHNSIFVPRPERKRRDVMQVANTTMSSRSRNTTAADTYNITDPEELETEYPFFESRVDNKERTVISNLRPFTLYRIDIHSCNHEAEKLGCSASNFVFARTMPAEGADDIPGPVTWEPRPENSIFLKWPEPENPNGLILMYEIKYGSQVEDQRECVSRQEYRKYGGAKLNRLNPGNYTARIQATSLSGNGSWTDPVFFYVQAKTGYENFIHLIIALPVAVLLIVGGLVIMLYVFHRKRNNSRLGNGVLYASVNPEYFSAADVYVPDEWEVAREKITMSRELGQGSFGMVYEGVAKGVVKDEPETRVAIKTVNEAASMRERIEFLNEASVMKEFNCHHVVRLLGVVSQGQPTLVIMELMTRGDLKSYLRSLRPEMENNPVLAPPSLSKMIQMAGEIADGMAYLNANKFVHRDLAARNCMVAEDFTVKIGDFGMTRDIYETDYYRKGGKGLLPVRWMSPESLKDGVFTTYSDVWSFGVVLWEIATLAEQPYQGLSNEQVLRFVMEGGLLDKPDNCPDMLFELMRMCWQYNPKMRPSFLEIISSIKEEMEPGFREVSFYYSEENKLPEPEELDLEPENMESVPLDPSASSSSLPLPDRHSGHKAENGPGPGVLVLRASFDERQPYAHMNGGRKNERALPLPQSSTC
Source text: as §1

In the next data set the target is PIM1 (Homo sapiens (Human), UniProt P11309). Description: Caliper Kinase Assay. The class given is biochemical. As to conditions: ATP at Km, peptide 1.5 uM.
Chain of PIM1 (P11309 whole entry, species assumed): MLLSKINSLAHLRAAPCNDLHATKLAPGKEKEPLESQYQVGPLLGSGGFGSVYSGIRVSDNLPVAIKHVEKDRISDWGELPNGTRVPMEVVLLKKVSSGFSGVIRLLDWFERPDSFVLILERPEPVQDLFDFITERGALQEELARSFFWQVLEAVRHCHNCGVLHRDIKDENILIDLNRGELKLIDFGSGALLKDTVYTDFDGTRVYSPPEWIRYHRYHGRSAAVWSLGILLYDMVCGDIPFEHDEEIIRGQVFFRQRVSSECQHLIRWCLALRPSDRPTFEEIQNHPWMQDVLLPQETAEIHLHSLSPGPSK
Source text: as §1

The target in the next data set is BTK (Homo sapiens (Human), UniProt Q06187). Description: Caliper Kinase Assay. Format: biochemical. The following applies: ATP at Km, peptide 1.5 uM; read-out: LLE_BTK (IC50).
In a further data set the target is CK2A2 (Homo sapiens (Human), UniProt P19784). Nature of the data set: Caliper Kinase Assay. Format: biochemical. The following applies: ATP at Km, peptide 1.5 uM; read-out: LLE_CK2A2 (IC50).
Chain of CK2A2 (P19784 whole entry, species assumed): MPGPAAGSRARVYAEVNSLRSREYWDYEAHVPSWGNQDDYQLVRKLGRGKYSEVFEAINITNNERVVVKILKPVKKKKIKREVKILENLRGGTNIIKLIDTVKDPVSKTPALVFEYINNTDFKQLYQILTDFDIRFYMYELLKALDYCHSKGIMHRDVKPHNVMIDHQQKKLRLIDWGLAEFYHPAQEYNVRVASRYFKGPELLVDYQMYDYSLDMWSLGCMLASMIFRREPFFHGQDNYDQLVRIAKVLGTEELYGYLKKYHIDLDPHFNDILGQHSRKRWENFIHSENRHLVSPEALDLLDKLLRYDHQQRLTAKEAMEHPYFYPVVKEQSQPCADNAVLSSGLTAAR
A further data set concerns the target JAK3 (Homo sapiens (Human), UniProt P52333). Description: Caliper Kinase Assay. Format: biochemical. As to conditions: ATP at Km, peptide 1.5 uM; read-out: LLE_JAK3 (IC50).
The target in a further data set is GSK3B (Homo sapiens (Human), UniProt P49841). Nature of the data set: Caliper Kinase Assay. The class given is biochemical. As to conditions: ATP at Km, peptide 1.5 uM; read-out: LLE GSK3B (IC50). The method, then: (§2) In addition, compounds of the present invention, such as particular compounds disclosed in the preceding examples, were evaluated for their effectiveness as inhibitors of kinase receptor activity.
(§3) The analyses were performed in U-bottom 384-well plates. The final assay volume was 30 μl prepared from 15 μl additions of enzyme and substrates (fluoresceinated peptide and ATP) and test compounds in assay buffer (20 mM HEPES pH 7.4, 10 mM MgCl2, 0.015% Brij35 and 4 mM DTT). The reaction was initiated by the combination of purified protein kinase with substrates and test compounds. The reaction was incubated at room temperature for 60 min. and terminated by adding 30 μl of 35 mM EDTA to each sample. The reaction mixture was analyzed on the Caliper LABCHIP® 3000 (Caliper, Hopkinton, Mass.) by electrophoretic separation of the fluorescent substrate and phosphorylated product. Inhibition data were calculated by comparison to no enzyme control reactions for 100% inhibition and vehicle-only reactions for 0% inhibition. The ATP was used at a final concentration equivalent to the Km and the peptide substrate concentration was 1.5 μM. […] Compounds were dissolved at 10 mM in dimethylsulfoxide (DMSO) and evaluated at eleven concentrations. IC50 values were derived by non-linear regression analysis.

The target in the next data set is IRAK-4 (Homo sapiens (Human), UniProt Q9NWZ3). Nature of the data set: Caliper Kinase Assay. The class given is biochemical. As to conditions: ATP at Km, peptide 1.5 uM; read-out: LLE IRAK-4 (IC50). The method, then:
as §2, §3

Another data set concerns the target TPL2 (Homo sapiens (Human), UniProt P41279). Description: Caliper Kinase Assay. Format: biochemical. The following applies: ATP at Km, peptide 1.5 uM; read-out: LLE_TPL2 CAL (IC50). The method, then: as §2, §3

Chain of Kv 1.5 (P22460 whole entry): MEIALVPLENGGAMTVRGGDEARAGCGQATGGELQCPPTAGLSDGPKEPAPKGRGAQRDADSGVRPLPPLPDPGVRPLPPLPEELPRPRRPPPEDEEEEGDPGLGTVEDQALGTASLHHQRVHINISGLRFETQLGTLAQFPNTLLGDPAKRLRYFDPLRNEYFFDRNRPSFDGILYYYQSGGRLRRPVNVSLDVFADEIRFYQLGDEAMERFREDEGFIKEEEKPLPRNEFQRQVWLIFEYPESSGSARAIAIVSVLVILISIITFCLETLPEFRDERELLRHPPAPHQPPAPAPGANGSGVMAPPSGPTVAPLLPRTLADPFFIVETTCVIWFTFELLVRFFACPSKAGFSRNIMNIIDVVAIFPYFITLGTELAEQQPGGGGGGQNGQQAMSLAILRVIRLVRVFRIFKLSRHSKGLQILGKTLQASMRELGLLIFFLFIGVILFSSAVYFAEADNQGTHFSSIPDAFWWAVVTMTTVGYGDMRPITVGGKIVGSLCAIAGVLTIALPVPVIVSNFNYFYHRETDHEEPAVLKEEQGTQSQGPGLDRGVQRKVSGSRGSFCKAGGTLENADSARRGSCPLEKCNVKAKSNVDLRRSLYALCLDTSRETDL
Chain of JAK2 (O60674 whole entry, species assumed): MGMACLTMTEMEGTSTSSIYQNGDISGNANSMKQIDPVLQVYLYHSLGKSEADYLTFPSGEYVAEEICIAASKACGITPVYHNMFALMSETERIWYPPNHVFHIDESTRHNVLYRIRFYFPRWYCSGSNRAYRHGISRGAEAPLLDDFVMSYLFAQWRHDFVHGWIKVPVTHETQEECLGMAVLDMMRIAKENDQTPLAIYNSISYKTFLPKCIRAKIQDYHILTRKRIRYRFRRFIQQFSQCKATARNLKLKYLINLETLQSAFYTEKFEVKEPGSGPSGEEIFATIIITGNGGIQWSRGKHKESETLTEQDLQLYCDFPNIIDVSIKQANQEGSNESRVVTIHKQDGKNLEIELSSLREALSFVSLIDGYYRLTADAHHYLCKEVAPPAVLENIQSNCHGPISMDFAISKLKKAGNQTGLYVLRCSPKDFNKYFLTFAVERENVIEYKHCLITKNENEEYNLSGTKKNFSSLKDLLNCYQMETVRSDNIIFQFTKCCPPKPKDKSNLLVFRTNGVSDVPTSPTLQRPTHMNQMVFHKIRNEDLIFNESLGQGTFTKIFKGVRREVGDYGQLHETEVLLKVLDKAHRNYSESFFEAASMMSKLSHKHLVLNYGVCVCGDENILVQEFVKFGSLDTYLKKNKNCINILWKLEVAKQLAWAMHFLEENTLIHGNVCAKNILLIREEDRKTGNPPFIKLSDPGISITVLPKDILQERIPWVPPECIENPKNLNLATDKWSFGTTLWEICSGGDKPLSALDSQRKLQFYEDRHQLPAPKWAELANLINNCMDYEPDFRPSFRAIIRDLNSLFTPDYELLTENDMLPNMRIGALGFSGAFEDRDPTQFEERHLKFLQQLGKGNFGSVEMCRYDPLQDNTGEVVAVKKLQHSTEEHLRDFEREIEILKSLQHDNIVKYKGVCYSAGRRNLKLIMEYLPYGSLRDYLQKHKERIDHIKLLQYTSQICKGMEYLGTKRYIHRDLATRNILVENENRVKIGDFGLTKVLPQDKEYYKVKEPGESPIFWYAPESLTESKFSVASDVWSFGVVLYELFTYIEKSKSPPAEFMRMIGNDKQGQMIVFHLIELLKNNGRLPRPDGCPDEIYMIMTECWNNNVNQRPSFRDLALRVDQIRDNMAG

Turning to `c1ccc(-c2cccc3nc(-c4cncnc4)nc(NCc4ccccn4)c23)cc1` [Example 1, 5-Phenyl-N-(pyridin-2-ylmethyl)-2-(pyrimidin-5-yl)quinazolin-4-amine], the values for the pIC50 at JAK2 and at TAK1 were 4.62 and not above 4.30, respectively.

On Kv 1.5, `NS(=O)(=O)c1cncc(-c2nc(NCc3ccccn3)c3c(-c4ccccc4)cccc3n2)c1` [Example 7, 5-(5-Phenyl-4-(pyridin-2-ylmethylamino)quinazolin-2-yl)pyridine-3-sulfonamide] registered an inhibition at 0.3 µM of 95.7%. Further, on JAK2, the negative-log IC50 (pIC50) (in general, −log10 of the IC50, conventionally taken in molar units) is not above 4.30. Further, in data set [1], the brain penetration result is “surprisingly low degree of brain penetration across species”.

Consider `Clc1nc(NCc2ccccn2)c2c(-c3ccccc3)cccc2n1` [Example 19], for which the inhibition at 50 µM on ABL1 came to 32.4%. Besides, the negative logarithm of the IC50 (pIC50) at Flt3 was 5.00; at IGF1R (first section of Table 4, read-out: LLE IGF1R (IC50)), 4.75; at IGF1R (second section of Table 4, read-out: LLE_IGF1R (IC50)) it was 4.75; on JAK2, 4.75; on PIM1 (first section of Table 4, read-out: LLE PIM1 (IC50)), 4.47; on PIM1 (third section of Table 4, read-out: LLE_PIM1 (IC50)) it was 4.47. In addition, the negative logarithm of the IC50 (pIC50) at BTK was 4.72; at CK2A2 it was 4.59; on JAK3 it was 4.62; at GSK3B it was 5.29; on IRAK-4 it was 4.73; at TPL2, 4.92.

In the case of `Cc1nc(NCc2ccccn2)c2c(-c3ccccc3)cccc2n1` [Example 22], on Kv 1.5, the inhibition at 0.3 µM came to 60.4%.

Consider `COc1cncc(-c2nc(NCc3ccccn3)c3c(-c4ccccc4)cccc3n2)c1` [Example 29], for which the inhibition at 0.3 µM at Kv 1.5 amounted to 65.3%.

For the compound `c1ccc(-c2cccc3nc(-c4ccncc4)nc(NCc4ccccn4)c23)cc1` [Example 31], on Kv 1.5, the inhibition at 0.3 µM came to 98.2%.

`Nc1ccc(-c2nc(NCc3ccccn3)c3c(-c4ccccc4)cccc3n2)cn1` [Example 32]: the inhibition at 0.3 µM against Kv 1.5 amounted to 53.1%.

The compound `Clc1nc(Nc2nccs2)c2c(-c3ccccc3)cccc2n1` [Example 38] showed an inhibition at 0.3 µM at Kv 1.5 of 61.3%.

With `c1ccc(CNc2nc(-c3cncnc3)nc3cccc(-c4ccccc4)c23)cc1` [Example 40], the inhibition at 0.3 µM on Kv 1.5 came out at 59.8%.

In turn, `Clc1nc(NCc2ccccc2)c2c(-c3ccccc3)cccc2n1` [Example 42] returned an inhibition at 0.3 µM at Kv 1.5 of 96.4%.

As for `c1ccc(-c2cccc3nc(-c4ccc5cc[nH]c5c4)nc(NCc4ccccn4)c23)cc1` [Example 46], the inhibition at 0.3 µM against Kv 1.5 was 98.7%.

`c1ccc(-c2nc(NCc3ccccn3)c3c(-c4ccccc4)cccc3n2)cc1` [Example 50] displayed an inhibition at 0.3 µM against Kv 1.5 of 96.1%.

The compound `FC(F)(F)c1ccc(-c2cccc3nc(Cl)nc(NCc4ccccn4)c23)cc1` [Example 97] had an inhibition at 0.3 µM on Kv 1.5 of 98.7%.

Compound `COc1ccc(-c2nc(NCc3ccccn3)c3c(-c4ccccc4)cccc3n2)cn1` [Example 105] gave an inhibition at 0.3 µM against Kv 1.5 of 98.7%.

As to `c1ccc(CNc2nc(-c3cncnc3)nc3cccc(-c4cccc(N5CCOCC5)c4)c23)nc1` [Example 107], the inhibition at 0.3 µM on Kv 1.5 stood at 50.3%.

The compound `CN(C)c1ccc(-c2cccc3nc(Cl)nc(NCc4ccccn4)c23)cc1` [Example 108] yielded an inhibition at 0.3 µM against Kv 1.5 of 98.1%.

`Fc1ccc(CNc2nc(Cl)nc3cccc(-c4ccccc4)c23)nc1` [Example 110] displayed an inhibition at 0.3 µM against Kv 1.5 of 51.8%.

`Fc1ccc(CNc2nc(-c3cncnc3)nc3cccc(-c4ccccc4)c23)nc1` [Example 111] displayed an inhibition at 0.3 µM on Kv 1.5 of 61.5%.

On to `CC(Nc1nc(Cl)nc2cccc(-c3ccccc3)c12)c1ccccc1` (stereo not drawn) [Example 130], for which the inhibition at 0.3 µM against Kv 1.5 turned out to be 96.2%.

`COc1cccc(CNc2nc(Cl)nc3cccc(-c4ccccc4)c23)c1` [Example 134] returned an inhibition at 0.3 µM against Kv 1.5 of 98.4%.

On to `FC(F)(F)c1ccccc1CNc1nc(Cl)nc2cccc(-c3ccccc3)c12` [Example 137], for which the inhibition at 0.3 µM at Kv 1.5 stood at 55.6%.
